Results on 13 compounds are retold here after US20230159527A1, “COMPOUNDS AS BCL-2 INHIBITORS” (Fochon Pharmaceuticals, Ltd., priority 2020, published 2023).

Some results are limits rather than exact numbers.

Format in all cases: cell-based
The subject of experiment [1] is Toledo cells. As to the kind of experiment: Cell proliferation assay, Toledo cells (MTS, 72 h). Conditions: Homo sapiens, Toledo cells, MTS, read-out: Toledo IC50. A digest of the protocol:
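IC50 was derived from 490 nm absorbance after a 2 h MTS step. Before that, compounds at 1.5–10000 nM final (nine points) acted on Toledo cells for 72 h at 37 °C, 5% CO2. Cells were seeded at 30000/well in 10% FBS RPMI-1640 and rested 4 h before dosing.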

Experiment [2] concerns DoHH2 cells. As to the kind of experiment: Cell proliferation assay, DoHH2 cells (MTS, 120 h). Conditions: Homo sapiens, DOHH-2. The gist of the method: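 DoHH2 cells in RPMI-1640 with 10% FBS were plated at 5000/well and rested 4 h. They were then exposed to compound at nine final concentrations (10000 to 1.5 nM) for 120 h at 37 °C. Viability was read by MTS (2 h, A490) and IC50 derived by curve fitting.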

Experiment [3] relates to RS4;11 cells. Kind of experiment: Cell proliferation assay, RS4;11 cells (MTS, 72 h). Conditions: Homo sapiens, RS4;11 cell proliferation. How it is done: MTS testing kit was purchased from Promega. The RPMI-1640, Fetal bovine serum and Penicillin-Streptomycin were purchased from Gibco. Dimethyl sulfoxide (DMSO) was purchased from Sigma.
To investigate whether a compound is able to inhibit the activity of Bcl-2 in cells, a mechanism-based assay using RS4;11 (ATCC® CRL-1873™) cell was developed. In this assay, inhibition of Bcl-2 was detected by the inhibition of RS4;11 cells proliferation. RS4;11 cells were cultured in culture flasks to 40-80% confluence in RPMI-1640 plus 10% fetal bovine serum. Cells were collected and plated onto 96-well plates at desired cell density (30000 cells/well). Plates were incubated overnight at 37° C., with 5% CO2 to adhere. Compounds were added to the plates, and the final compound concentrations were 10000, 3333, 1111, […], 41, 14, 4.6 and 1.5 nM. Plates plated with RS4;11 cells were placed at 37° C., with 5% CO2 for 72 h. 20 μl MTS/100 μl medium mixture solution were added to each well and incubate the plates for exactly 2 hours. The reaction was stopped by adding 25 μl 10% SDS per well. Measure absorbance at 490 nm and 650 nm (reference wavelength). IC50 was calculated using GraphPad Prism 5.0.

For `CC(C)c1ccccc1C1COCCN1C1CC2(CCN(c3ccc(C(=O)NS(=O)(=O)c4cnc(NCC5(C#N)CCOCC5)c([N+](=O)[O-])c4)c(Oc4cnc5[nH]ccc5c4)c3)CC2)C1` (single isomer, unassigned) [Example A-142, (R or S)-2-((1H-pyrrolo[2,3-b]pyridin-5-yl)oxy)-N-((6-(((4-cyanotetrahydro-2H-pyran-4-yl)methyl)amino)-5-nitro-pyridin-3-yl)sulfonyl)-4-(2-(3-(2-iso-propylphenyl)morpholino)-7-azaspiro [3.5]nonan-7-yl)benzamide], the IC50 – broadly, the concentration that inhibits the measured activity by half – in experiment [1] was 9 nM; in experiment [2], no more than 1 nM; in experiment [3] it was no more than 1 nM.
Take `CC(C)c1ccccc1[C@H]1CCCN1C1CC2(CCN(c3ccc(C(=O)NS(=O)(=O)c4cnc(NC[C@H]5CC[C@@](C)(O)CC5)c([N+](=O)[O-])c4)c(Oc4cnc5[nH]ccc5c4)c3)CC2)C1` [Example A-7a, 2-((1H-pyrrolo[2,3-b]pyridin-5-yl)oxy)-N-((6-((((1s,4s)-4-hydroxy-4-methylcyclohexyl)methyl)amino)-5-nitropyridin-3-yl)sulfonyl)-4-(2-((R)-2-(2-isopropylphenyl)pyrrolidin-1-yl)-7-azaspiro[3.5]nonan-7-yl)benzamide]: the figures for the IC50 in experiment [1], in experiment [2] and in experiment [3] were 1 nM, no more than 1 nM and no more than 1 nM, respectively.
In the case of `O=C(NS(=O)(=O)c1cnc(NCC2C3COCC23)c([N+](=O)[O-])c1)c1ccc(N2CCC3(CC2)CC(N2CCC[C@@H]2c2ccccc2C2CC2)C3)cc1Oc1cnc2[nH]ccc2c1` (stereo partly drawn) [Example A-30b, 2-((1H-pyrrolo[2,3-b]pyridin-5-yl)oxy)-N-((6-(((3-oxabicyclo[3.1.0]hexan-6-yl)methyl)amino)-5-nitro-pyridin-3-yl)sulfonyl)-4-(2-((R)-2-(2-cyclopropylphenyl)pyrrolidine-1-yl)-7-azaspiro[3.5]nonan-7-yl)benzamide], the values for the IC50 in experiment [1], in experiment [2] and in experiment [3] were 1 nM, no more than 1 nM and no more than 1 nM, respectively.
Turning to `O=C(NS(=O)(=O)c1cc2c(c([N+](=O)[O-])c1)O[C@H](CN1CCOCC1)CO2)c1ccc(N2CCC3(CC2)CC(N2CCC[C@H]2c2ccccc2C2CC2)C3)cc1Oc1cnc2[nH]ccc2c1` (single isomer, unassigned) [Example E-38, 2-((1H-pyrrolo [2,3-b]pyridin-5-yl)oxy)-4-(2-((R or S)-2-(2-cyclopropylphenyl)pyrrolidin-1-yl)-7-azaspiro[3.5]nonan-7-yl)-N-(((R)-2-(morpholinomethyl)-8-nitro-2,3-dihydrobenzo [b][1,4]dioxin-6-yl)sulfonyl) benzamide], the IC50 was 1 nM in experiment [1], no more than 1 nM in experiment [2] and no more than 1 nM in experiment [3].
Consider `O=C(NS(=O)(=O)c1cc([N+](=O)[O-])c2c(n1)OC[C@H](C1CC1)N2)c1ccc(N2CCC3(CC2)CC(N2CCCC2c2ccccc2C2CC2)C3)cc1Oc1cnc2[nH]ccc2c1` (single isomer, unassigned) [Example B-52, 2-((1H-pyrrolo[2,3-b]pyridin-5-yl)oxy)-N-(((S)-2-cyclopropyl-8-nitro-2,3-dihydro-1H-pyrido[2,3-b] [1,4]oxazin-6-yl)sulfonyl)-4-(2-((R or S)-2-(2-cyclopropylphenyl)pyrrolidin-1-yl)-7-azaspiro[3.5]nonan-7-yl)benzamide], for which the IC50 in experiment [2] and in experiment [3] was no more than 1 nM throughout.
In the case of `CC(C)c1ccccc1[C@H]1CCCN1C1CC2(CCN(c3ccc(C(=O)NS(=O)(=O)c4cc([N+](=O)[O-])c(NCC5CCOCC5)cn4)c(Oc4cnc5[nH]ccc5c4)c3)CC2)C1` [Example B-4b, (R)-2-((1H-pyrrolo[2,3-b]pyridin-5-yl)oxy)-4-(2-(2-(2-isopropylphenyl)pyrrolidin-1-yl)-7-azaspiro [3.5]nonan-7-yl)-N-((4-nitro-5-(((tetrahydro-2H-pyran-4-yl)methyl)amino)pyridin-2-yl)sulfonyl) benzamide], the IC50 in experiment [2] and in experiment [3] was no more than 1 nM throughout.
For the compound `CC(C)c1ccccc1[C@@H]1CCCN1C1CC2(CCN(c3ccc(C(=O)NS(=O)(=O)c4cnc(NCC5CCOCC5)c([N+](=O)[O-])c4)c(Oc4cnc5[nH]ccc5c4)c3)CC2)C1` [Example A-5a, (5)-2-((1H-pyrrolo[2,3-b]pyridin-5-yl)oxy)-4-(2-(2-(2-isopropyl-phenyl)pyrrolidin-1-yl)-7-azaspiro [3.5]nonan-7-yl)-N-((5-nitro-6-(((tetrahydro-2H-pyran-4-yl)methyl)amino)pyridin-3-yl)sulfonyl) benzamide], the IC50 in experiment [2] and in experiment [3] was no more than 1 nM throughout.
As for `O=C(NS(=O)(=O)c1cnc(NCC2C3COCC23)c([N+](=O)[O-])c1)c1ccc(N2CCC3(CC2)CC(N2CCC4C[C@@]42c2ccccc2C2CC2)C3)cc1Oc1cnc2[nH]ccc2c1` (single isomer, unassigned) [Example A-97a, 2-((1H-pyrrolo[2,3-b]pyridin-5-yl)oxy)-N-((6-(((3-oxabicyclo[3.1.0]hexan-6-yl)methyl)amino)-5-nitro-pyridin-3-yl)sulfonyl)-4-(2-((1R or 1S)-1-(2-cyclopropylphenyl)-2-aza-bicyclo[3.1.0]hexan-2-yl)-7-azaspiro [3.5]nonan-7-yl)benzamide], the IC50 in experiment [2] and in experiment [3] was no more than 1 nM each time.
As for `CC(C)c1ccccc1C1CCCN1C1CC2(CCN(c3ccc(C(=O)NS(=O)(=O)c4cc([N+](=O)[O-])c5c(n4)OC[C@H](C4CC4)N5)c(Oc4cnc5[nH]ccc5c4)c3)CC2)C1` (single isomer, unassigned) [Example B-31a, 2-((1H-pyrrolo[2,3-b]pyridin-5-yl)oxy)-N-(((S)-2-cyclopropyl-8-nitro-2,3-dihydro-1H-pyrido[2,3-b] [1,4]oxazin-6-yl)sulfonyl)-4-(2-((R or S)-2-(2-isopropylphenyl)pyrrolidin-1-yl)-7-azaspiro[3.5]nonan-7-yl)benzamide], the IC50 in experiment [2] and in experiment [3] was no more than 1 nM in each case.
Turning to `CC(C)c1ccccc1[C@@H]1CCCN1C1CC2(CCN(c3ccc(C(=O)NS(=O)(=O)c4cc([N+](=O)[O-])c5c(n4)OC[C@H](Cc4ccccn4)N5)c(Oc4cnc5[nH]ccc5c4)c3)CC2)C1` (single isomer, unassigned) [Example B-38, 2-((1H-pyrrolo[2,3-b]pyridin-5-yl)oxy)-4-(2-((R or S)-2-(2-isopropylphenyl)pyrrolidin-1-yl)-7-azaspiro[3.5]nonan-7-yl)-N-(((S)-8-nitro-2-(pyridin-2-ylmethyl)-2,3-dihydro-1H-pyrido [2,3-b][1,4]oxazin-6-yl)sulfonyl) benzamide], the IC50 in experiment [2] and in experiment [3] was no more than 1 nM throughout.
With `Cc1nc(NC[C@H]2CC[C@](C)(O)CC2)c([N+](=O)[O-])cc1S(=O)(=O)NC(=O)c1ccc(N2CCC3(CC2)CC(N2CCOC[C@H]2c2ccccc2C(C)C)C3)cc1Oc1cnc2[nH]ccc2c1` (single isomer, unassigned) [Example A-131, 2-((1H-pyrrolo[2,3-b]pyridin-5-yl)oxy)-N-((6-((((1r,4r)-4-hydroxy-4-methylcyclohexyl)methyl)amino)-2-methyl-5-nitropyridin-3-yl)sulfonyl)-4-(2-((R or S)-3-(2-isopropylphenyl)morpholino)-7-azaspiro[3.5]nonan-7-yl) benzamide], the IC50 in experiment [2] and in experiment [3] was no more than 1 nM each time.
Consider `O=C(NS(=O)(=O)c1cc([N+](=O)[O-])c(NCC2CCOCC2)cn1)c1ccc(N2CCC3(CC2)CC(N2CCC[C@@H]2c2ccccc2C2CC2)C3)cc1Oc1cnc2[nH]ccc2c1` [Example B-1b, (R)-2-((1H-pyrrolo[2,3-b]pyridin-5-yl)oxy)-4-(2-(2-(2-cyclopropylphenyl)pyrrolidin-1-yl)-7-azaspiro[3.5]nonan-7-yl)-N-((4-nitro-5-(((tetrahydro-2H-pyran-4-yl)methyl)amino)pyridin-2-yl)sulfonyl)benzamide], for which the IC50 in experiment [2] and in experiment [3] was no more than 1 nM in each case.
`O=C(NS(=O)(=O)c1cnc(NCC2(F)CCOCC2)c([N+](=O)[O-])c1)c1ccc(N2CCC3(CC2)CC(N2CCC[C@@H]2c2ccccc2C2CC2)C3)cc1Oc1cnc2[nH]ccc2c1` [Example A-32b, (R)-2-((1H-pyrrolo[2,3-b]pyridin-5-yl)oxy)-4-(2-(2-(2-cyclopropyl-phenyl)pyrrolidin-1-yl)-7-azaspiro [3.5]nonan-7-yl)-N-((6-(((4-fluoro-tetrahydro-2H-pyran-4-yl)methyl)amino)-5-nitropyridin-3-yl)sulfonyl)benzamide]: the IC50 in experiment [2] and in experiment [3] was no more than 1 nM throughout.
